Measured values from US20220381657A1, “METHOD FOR PREPARING BIOLOGICAL MATERIAL HAVING EXCELLENT LIGHT-TRANSMITTING PROPERTY” (RIKEN, priority 2016, published 2022).
Like-named read-outs stand apart in the source and are kept apart here.

Experiments:
[1] = system: Serius
[2] = system: bovine coagulated blood; experiment: Decoloring screening: heme eluted from bovine coagulated blood (OD420-OD700); settings: decolorization; for 700 nm calibrated 420 nm Average: OD420 calibrated by OD700; for integrated value 500-700 nm Average: integrated absorbance 500-700 nm
Method: A high-throughput screening system for evaluating the decoloring ability of various compounds was constructed. The screening system involved adding an aqueous solution of each compound to bovine coagulated blood and then measuring the absorbance of heme collected in the supernatant.
Specifically, to bovine blood, an equal amount of 8% PFA solution was added, and reacted at 4° C. overnight. The mixed liquid was centrifuged at 1500×g for 5 minutes, and the supernatant containing PFA was discarded. Then, the same amount of PBS as the original volume of blood was added to prepare a coagulated blood sample. To 150 μL of 10 wt % aqueous solution of each compound, 50 μL of the coagulated blood sample was added, and reacted at 37° C. overnight. The reaction solution was centrifuged at 1500×g for 5 minutes, and then 100 μL of the supernatant was added to a plate so as to be subjected to absorbance measurement. A sample which is suspended in water instead of being dissolved in the water has a weak decoloring effect, but none the less has a high absorbance value. […]

[3] = for 400 nm: OD at 400 nm of the chemical

Row | 400 nm [3] | Molecule | Fluorescence quench Average [1] | 700 nm calibrated 420 nm Average [2] | integrated value 500-700 nm Average [2] | Fluorescence quench Average ([1]; relative fluorescence) | other results
1 |  | CCCCCCCCCCCCCC[N+](C)(C)Cc1ccccc1 [#0362] | 1.07 |  |  |  | 
2 | 0.049 | NCC1CCOCC1 [#0467, 4-Aminomethyl-tetrahydropyran] |  | 1.52 | 1.13 | 0.65 | pH ([…]): 12.9
3 | 0.048 | OCCN(CCO)CCN(CCO)CCO [#1537, N,N,N′,N′-Tetrakis(2-hydroxyethyl) ethylenediamine] |  | 1.29 | 1.63 | 0.66 | pH ([…]): 11.7
4 | 0.051 | CCN(CC)CCN [#0779, N,N-Diethyl-ethylenediamine] |  | 1.39 | 0.81 | 0.70 | pH ([…]): 13.6
5 |  | CN(CCCN)CCCN [#0380] |  | 2.62 | 1.58 | 0.62 | 
6 | 0.054 | NCC(O)CN [#1062] |  | 1.13 | 0.80 | 0.67 | pH ([…]): 12.8
7 |  | [Cl-].c1ccc(C[P+](c2ccccc2)(c2ccccc2)c2ccccc2)cc1 [#0425, Benzyltriphenyl-phosphonium chloride] |  | 1.14 | 0.83 | 0.35 | 
8 |  | CCN(CC)CCO [#1575, 2-Diethylamino-ethanol] | 0.61 | 2.41 | 1.21 |  | 
9 |  | NC[C@H](O)[C@@H](O)[C@H](O)[C@H](O)CO [#0956, D-Glucamine, reference compound] |  |  |  |  | pH (Table 3): 12.3; OD400 ([3]; Table 3): 0.260
10 |  | C[n+]1ccc(-c2cc[n+](C)cc2)cc1 [#0652, 1,1′-Dimethyl-4,4′-bipyridinium dichloride] | 0.42 | 2.01 | 2.01 |  | 
11 | 0.051 | Dodecyldimethyl(3- sulfopropyl)ammonium [#0661] |  | 2.10 | 1.70 | 1.13 | OD400 ([3]; Table 1): 0.051
12 |  | Cl.O=C(O)CCP(CCC(=O)O)CCC(=O)O [#0197, Tris(2-carboxyethyl) phosphine hydrochloride] | −0.05 | 4.28 | 3.89 |  | 
13 |  | CC(C)(C)CC(C)(C)c1ccc(OCCOCC[N+](C)(C)Cc2ccccc2)cc1 [#0441, Benzethonium Chloride] | 1.08 | 3.40 | 2.80 |  | 
14 |  | CCCCCCCCC(=O)[O-].[Na+] [#0865, Sodium nonanoate] |  |  |  |  | pH (Table 1): 8.9; OD400 ([3]; Table 1): 0.051
15 |  | OCCN1CC1 [#1061] | 0.80 | 1.14 | 0.91 |  | 
16 |  | CCCCCCCCCCCCCCCC[N+](C)(C)C.[Cl-] [#1235, Hexadecyltrimethyl- ammonium chloride] | 1.06 | 2.85 | 2.71 |  | 
17 |  | CCCCCCCCCCCC(=O)N(C)CC(=O)[O-].[Na+] [#1466, Sodium N- lauroylsarcosinate] |  |  |  |  | pH (Table 1): 6.1; OD400 ([3]; Table 1): 0.05
18 |  | C1CCC2=NCCCN2CC1 [#0594, 1,8-Diazabicyclo [5.4.0]-7-undecene] | 0.54 | 3.13 | 1.94 |  | 

Row | Molecule | 400 nm [3] | Fluorescence quench Average [1] | 700 nm calibrated 420 nm Average [2] | integrated value 500-700 nm Average [2] | Fluorescence quench Average ([1]; relative fluorescence) | other results
19 | C[N+](C)(C)Cc1ccccc1.[OH-] [#0387, Benzyltrimethyl- ammonium Hydroxide] | 0.054 |  | 3.14 | 2.56 | 0.00 | pH (Table 1): 13.8; pH ([…]): 13.8; OD400 ([3]; Table 1): 0.054
